Measured values published in patent US6235754A, “Methods and compositions for protecting animals and humans against attack and infestation by arthropod and helminth parasites” (American Cyanamid Company, priority 1999, dated 2001).
Like-named read-outs stand apart in the source and are kept apart here.

Columns and labels:
Type in all cases: in vivo
[1] = tested on: Ctenocephalides felis (cat flea); assay: Contact activity against the adult cat flea (Table I); conditions: topical
Protocol: (§1) This test is designed to evaluate the contact activity of test compounds against the adult cat flea. Test compounds are dissolved in 100% acetone to 300, 100, 10 and 1 ppm. 100 μL of each of these dilutions is added to the bottom of a 20 mL glass scintillation vial with a pipettor. The vial is allowed to dry under a fume hood for 15 minutes. The bottom of the vial measures 4.909 cm^2. The amount of test compound applied by each dilution equals 6.2, 2.0, 0.2 and 0.02 μg/cm^2, respectively. Newly emerged adult cat fleas are anesthetized with CO2 to immobilize, and are counted into the scintillation vials with forceps. Five fleas are placed in each vial. These tests are done in replicates of two or three so that there are 10 to 15 fleas per rate/compound. Mortality readings are taken 4 and 24 hours after placing the fleas in the vials. […] Percent mortality is then calculated for each treatment.

[2] = tested on: Dermacentor variabilis (American dog tick); assay: Contact activity against the larval American dog tick (Table II); conditions: topical
Protocol: This test is designed to evaluate the contact activity of test compounds against the American dog tick. Test compounds are dissolved in 100% acetone to 1000, 300, 100, 10, 1 and 0.1 ppm. 100 μL of each of these dilutions is added to the bottom of a 20 mL glass scintillation vial with a pipettor. The vial is allowed to dry under a fume hood for 15 minutes. The vial is then turned in its side, and 250 μL of each dilution is applied to the sides of the vial. The vial is placed on a rolling machine and allowed to roll under the hood, coating the sides of the vial, until the acetone completely evaporates. The bottom of the vial measures 4.909 cm^2 and the sides measure 4.5 cm high×8.8 cm around, so that the total coated area of the scintillation vial measures 44.51 cm^2. The amount of test compound applied by each dilution equals 7.86, 2.36, 0.79, 0.079, 0.0079 and 0.00079 μg/cm^2, respectively. Unfed larval dog ticks are counted into the scintillation vials with a slightly damp paintbrush. Ten ticks are placed in each vial. These tests are done in replicates of two or three so that there are 20 to 30 ticks per rate/compound. Mortality readings are taken 4 and 24 hours after placing the ticks in the vials. To read the test, the vial is placed under a magnifying glass and tapped gently. […] Percent mortality is then calculated for each treatment.

[3] = tested on: Ctenocephalides felis (cat flea); assay: whole plant or invertebrate; conditions: topical, 24 h, read-out: 24 Hour % Mortality
Protocol: as §1
This test evaluates the synergistic effect of piperonyl butoxide on the formula I compounds of this invention. Piperonyl butoxide (PBO) is added in an amount of 1.5% to a 1,000 ppm solution of a test compound in acetone. Dilutions are then made with acetone to provide solutions containing 300, 100, 10 and 1 ppm of the test compound and 0.45%, 0.15%, 0.015% and 0.0015% piperonyl butoxide, respectively. Solutions containing 1,000, 300, 100, 10 and 1 ppm of the test compound alone are used as the control. […]

[4] = tested on: Bovicola spp. (biting louse); assay: Activity against the adult biting louse (Table VI); conditions: dose 2.0 μg/cm^2
Protocol: This test is designed to evaluate the activity of test compounds against the biting louse. Test compounds are dissolved in 100% acetone to 300, 100 and 10 ppm. 100 μL of each of these dilutions is added to the bottom of a 20 mL glass scintillation vial with a pipettor. The vial is allowed to dry under a fume hood for 15 minutes. The bottom of the vial measures 4.909 cm^2. The amount of test compound applied by each dilution equals 6.1, 2.0 and 0.2 μg/cm^2, respectively. Included in all tests are two to three replications of untreated vials. Lice are collected from the host animal and are used within 4 hours. The lice are counted into the scintillation vials with a slightly damp paintbrush. Five adult lice are placed in each vial. These tests are done in replicates of two or three so that there are 10 to 15 lice per rate/compound. Mortality readings are taken at 2 and 4 hours after placing the lice in the vials. To read the test, the vial is placed under a magnifying glass. […] Percent mortality is then calculated for each treatment.

[5] = tested on: Musca domestica (house fly); assay: Activity against the adult house fly (Table V)
Protocol: This test is designed to evaluate the activity of test compounds against the house fly. Test compounds are dissolved in 100% acetone to 1000, 300, 100, 10 and 1 ppm. 100 μL of each of these dilutions is added to the bottom of a 20 mL glass scintillation vial with a pipettor. The vial is allowed to dry under a fume hood for 15 minutes. The vial is then turned on its side, and 250 μL of each dilution is applied to the sides of the vial. The vial is placed on a rolling machine and allowed to roll under the hood, coating the sides of the vial, until the acetone completely evaporates. The bottom of the vial measures 4.909 cm^2 and the sides measure 4.5 cm high×8.8 cm around, so that the total coated area of the scintillation vial measures 44.51 cm^2. The amount of test compound applied by each dilution equals 7.86, 2.36, 0.79, 0.079, and 0.0079 μg/cm^2, respectively. Included in all tests are two to three replications of untreated vials. Adult house flies which are five to seven days old are chilled in a freezer for five minutes to immobilize, and are placed on a sorting platform which provides a steady stream of CO2 to keep the flies immobile. Five flies are counted into each scintillation vial with forceps. The top of the vial is plugged with a wad of sheet cotton sufficient to contain the flies. These tests are done in replicates of two to four so that there are 10 to 20 flies per rate/compound. Mortality readings are taken 1 and 4 hours after placing the flies in the vials. Flies which are unable to stand when disturbed are considered dead. Percent mortality is then calculated for each treatment.

[6] = tested on: adult, Pyrethroid-susceptible horn fly (Haematobia irritans); assay: Adult pyrethroid-susceptible horn fly, treated filter paper (Table III); conditions: topical, 6 h, read-out: 6 Hour % Mortality
Protocol: Test doses are expressed as μg of test substance per cm^2 of filter paper.
1) Prepare solutions of test compound in acetone such that 800 or 1000 μL contains the amount necessary to obtain the desired dose rate.
2) Pipette 800 or 1000 μL of test solution onto filter paper.
3) Filter papers are dried under a fume hood.
4) When dry, filter papers are placed in the petri dish tops. Dishes are generally held about 24 hours before test organism is added.
5) Two- to five-day-old horn flies (pyrethroid-susceptible or -resistant) which have had two or more blood meals are used in the assay. Flies are collected into a small vial from the holding cage. Vials are then chilled in a freezer for about 4 minutes to immobilize the flies. Immobilized flies are then distributed to petri dish bottoms, 12 to 25 flies per dish, then dishes are closed and inverted.
6) As soon as the flies become mobile (about 5 minutes), they are examined to detect any flies that are dead or injured. This number is subtracted from total number of flies in the dish.
7) Petri dishes are held at room temperature and examined at the desired time intervals which might be 10 minutes to 6 hours.
8) All dead flies are recorded at each examination time. A fly is considered dead if it cannot walk even though it may still be moving.
10) Percent mortality at any time period is calculated using the following formula: […]
Number of dead flies-number dead @5 min/Total number of flies-number dead
Percent mortality is then corrected for control mortality using Abbot's formula.

[7] = 4 h, read-out: 4 Hour % Mortality
[8] = 24 h, read-out: 24 Hour % Mortality
[9] = 4 hours, dose 0.079 μg/cm^2, read-out: 4 Hour % Mortality
[10] = 4 hours, dose 0.790 μg/cm^2, read-out: 4 Hour % Mortality
[11] = 4 hours, dose 2.360 μg/cm^2, read-out: 4 Hour % Mortality
[12] = 4 hours, dose 7.860 μg/cm^2, read-out: 4 Hour % Mortality
[13] = 24 hours, dose 0.079 μg/cm^2, read-out: 24 Hour % Mortality
[14] = 24 hours, dose 0.790 μg/cm^2, read-out: 24 Hour % Mortality
[15] = 24 hours, dose 2.360 μg/cm^2, read-out: 24 Hour % Mortality
[16] = 24 hours, dose 7.860 μg/cm^2, read-out: 24 Hour % Mortality
[17] = 1 h, read-out: 1 Hour % Mortality

| SMILES | mortality at 0.02 µg/cm2 [1, 7] | mortality at 0.2 µg/cm2 [1, 7] | mortality at 2 µg/cm2 [1, 7] | mortality at 0.02 µg/cm2 [1, 8] | mortality at 0.2 µg/cm2 [1, 8] | mortality at 0.079 µg/cm2 [2, 9] | mortality at 0.79 µg/cm2 [2, 10] | mortality at 2.36 µg/cm2 [2, 11] | mortality at 7.86 µg/cm2 [2, 12] | mortality at 0.079 µg/cm2 [2, 13] | mortality at 0.79 µg/cm2 [2, 14] | mortality at 2.36 µg/cm2 [2, 15] | mortality at 7.86 µg/cm2 [2, 16] | other results |
| --- | --- | --- | --- | --- | --- | --- | --- | --- | --- | --- | --- | --- | --- | --- |
| F/C(=C\Cc1ccc(F)c(Oc2ccccc2)c1)C(c1ccc(Cl)cc1)C1CC1 (stereo not drawn) [Compound 5, 1-[1-(p-Chlorophenyl)-2-fluoro-4-(4-fluoro-3-phenoxyphenyl)-2-butenyl]cyclopropane, (Z)-] | 34% | 39% | 79% | 69% | 81% | 100% | 100% | 100% | 100% | 100% | 100% | 100% | 100% | mortality at 6.2 µg/cm2 ([1]; 4 hours, dose 6.20 μg/cm^2, read-out: 4 Hour % Mortality): 98%; mortality at 0.00079 µg/cm2 ([2]; 4 hours, dose 0.00079 μg/cm^2, read-out: 4 Hour % Mortality): 100%; mortality at 0.0079 µg/cm2 ([2]; 4 hours, dose 0.0079 μg/cm^2, read-out: 4 Hour % Mortality): 100%; mortality at 0.00079 µg/cm2 ([2]; 24 hours, dose 0.00079 μg/cm^2, read-out: 24 Hour % Mortality): 100%; mortality at 0.0079 µg/cm2 ([2]; 24 hours, dose 0.0079 μg/cm^2, read-out: 24 Hour % Mortality): 100%; mortality at 2 µg/cm2 [3]: 100%; mortality at 6.2 µg/cm2 [3]: 100%; 2 Hour % Mortality [4]: 92% |
| CCOc1ccc(C(/C(F)=C/Cc2ccc(F)c(Oc3ccccc3)c2)C2CC2)cc1 (stereo not drawn) [Compound 10, 1-[1-(p-Ethoxyphenyl)-2-fluoro-4-(4-fluoro-3-phenoxyphenyl)-2-butenyl]cyclopropane, (Z)-] | 10% | 68% | 70% | 20% | 95% | 100% | 100% | 100% | 100% | 100% | 100% | 100% | 100% | mortality at 6.2 µg/cm2 [1, 7]: 100%; mortality at 2 µg/cm2 [1, 8]: 100%; mortality at 6.2 µg/cm2 [1, 8]: 100%; mortality at 0.079 µg/cm2 [5, 17]: 20%; mortality at 0.79 µg/cm2 [5, 17]: 20%; mortality at 2.36 µg/cm2 [5, 17]: 40%; mortality at 0.079 µg/cm2 [5, 7]: 60%; mortality at 2.36 µg/cm2 [5, 7]: 100%; mortality at 0.79 µg/cm2 [5, 10]: 75% |
| F/C(=C\Cc1ccc(F)c(Oc2ccc(F)cc2)c1)C(c1ccc(Cl)cc1)C1CC1 (racemic) [Compound 18] |  |  |  |  |  |  |  |  |  |  |  |  |  | mortality at 0.625 µg/cm2 [6]: 4%; mortality at 1.25 µg/cm2 [6]: 36%; mortality at 2.5 µg/cm2 [6]: 94%; mortality at 5 µg/cm2 [6]: 99%; mortality at 10 µg/cm2 [6]: 100% |
